Here are results for 72 compounds from the Kinase Knowledgebase extract (Sharma et al. 2016).

Usually EC50 stands for the concentration needed to bring the measured effect to its halfway point. Low values mean an effect from little substance, high ones a need for much substance.

Chain of EGFR (Human), P00533 [T790M/L858R] (P00533 whole entry T790M/L858R, looked up): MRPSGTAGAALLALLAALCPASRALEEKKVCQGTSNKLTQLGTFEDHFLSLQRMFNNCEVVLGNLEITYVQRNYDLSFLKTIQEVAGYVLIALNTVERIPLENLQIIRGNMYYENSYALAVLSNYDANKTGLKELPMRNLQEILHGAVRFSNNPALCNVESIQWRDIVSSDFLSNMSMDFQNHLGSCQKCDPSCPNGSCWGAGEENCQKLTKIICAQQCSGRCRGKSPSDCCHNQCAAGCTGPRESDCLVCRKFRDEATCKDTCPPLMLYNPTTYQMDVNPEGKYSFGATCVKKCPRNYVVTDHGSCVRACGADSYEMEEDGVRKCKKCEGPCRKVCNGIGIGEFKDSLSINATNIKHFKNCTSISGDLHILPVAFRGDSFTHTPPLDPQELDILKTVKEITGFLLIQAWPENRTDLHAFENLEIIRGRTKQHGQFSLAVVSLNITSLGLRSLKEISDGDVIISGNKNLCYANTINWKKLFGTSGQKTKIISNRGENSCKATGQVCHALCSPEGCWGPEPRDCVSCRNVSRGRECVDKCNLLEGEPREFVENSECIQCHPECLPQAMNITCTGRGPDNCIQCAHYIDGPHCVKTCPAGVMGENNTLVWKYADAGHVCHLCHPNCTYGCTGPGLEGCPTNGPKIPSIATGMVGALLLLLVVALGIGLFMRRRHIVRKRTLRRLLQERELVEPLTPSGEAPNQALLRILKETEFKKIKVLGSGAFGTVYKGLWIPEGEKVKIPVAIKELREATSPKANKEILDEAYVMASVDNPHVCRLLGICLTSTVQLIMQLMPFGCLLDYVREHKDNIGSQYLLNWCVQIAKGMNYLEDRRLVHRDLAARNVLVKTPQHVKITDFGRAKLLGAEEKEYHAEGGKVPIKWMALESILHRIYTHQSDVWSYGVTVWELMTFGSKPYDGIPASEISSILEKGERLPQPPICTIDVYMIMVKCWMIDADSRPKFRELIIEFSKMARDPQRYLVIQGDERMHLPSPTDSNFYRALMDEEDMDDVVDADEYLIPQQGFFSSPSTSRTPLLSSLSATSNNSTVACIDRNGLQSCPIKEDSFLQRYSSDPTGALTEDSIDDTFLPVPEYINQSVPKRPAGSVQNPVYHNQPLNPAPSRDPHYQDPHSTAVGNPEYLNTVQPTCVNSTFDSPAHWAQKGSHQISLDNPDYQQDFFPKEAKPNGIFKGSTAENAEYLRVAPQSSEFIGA

The test concerns the target EGFR (Human), P00533 [T790M/L858R]. Particulars: nci-h1975.
Compound `CC(C)n1nc(NCCC(N)=O)c2cnc(Nc3ccnc(-c4cnn(S(=O)(=O)C5CC5)c4)n3)cc21` had an EC50 of 3970 nM. The value for `CC(C)n1ncc2cnc(Nc3ccnc(-c4cnn(CC5CC5)c4)n3)cc21` was 498 nM. The value for `CCC(C)n1nc(N2CC[C@@H](O)C2)c2cnc(Nc3ccnc(N4CCC(S(C)(=O)=O)CC4)n3)cc21` (some centres not stated) was 1110 nM. Consider `COCCNC(=O)C1CN(c2nn(C(C)C)c3cc(Nc4ccnc(-c5cnn(S(=O)(=O)C6CC6)c5)n4)ncc23)C1`, for which the EC50 was 1450 nM. The value for `CC(C)n1nc(N2CC(CC#N)C2)c2cnc(Nc3ccnc(-c4cnn(S(=O)(=O)C5CC5)c4)n3)cc21` was 184 nM; that for `CC(C)n1nc(N2CC[C@@H](O)C2)c2cnc(Nc3ccnc(N4CC[C@@H](O)[C@@H](F)C4)n3)cc21` was 404 nM. The value for `CCC(C)n1nc(N2CC[C@@H](O)C2)c2cnc(Nc3ccnc(N4CCC(CC#N)(OC)CC4)n3)cc21` (some centres not stated) was 1470 nM; that for `CC(C)n1nc(N2CC(O)C2)c2cnc(Nc3ccnc(-c4cnn(S(=O)(=O)C5CC5)c4)n3)cc21` was 1120 nM; that for `CC(C)n1nc(N2CC3CCC(C2)O3)c2cnc(Nc3ccnc(-c4cnn(S(=O)(=O)C5CC5)c4)n3)cc21` was 1210 nM. The figure for `CC(C)n1nc(NCC(N)=O)c2cnc(Nc3ccnc(-c4cnn(S(=O)(=O)C5CC5)c4)n3)cc21` is 5440 nM; for `CCC(C)n1nc(N2CC[C@@H](O)C2=O)c2cnc(Nc3ccnc(-c4cnn(S(=O)(=O)C5CC5)c4)n3)cc21` (some centres not stated) it is 586 nM. On to `CC(C)n1nc(N2CC[C@@H](O)C2)c2cnc(Nc3ccnc(-c4cnn(S(=O)(=O)C5CC5)c4)n3)cc21`, for which the EC50 was determined as 190 nM. For the compound `CC(C)n1nc(N2CC3(C2)C[S+]([O-])C3)c2cnc(Nc3ccnc(N4CCC(C)(O)CC4)n3)cc21`, the EC50 was determined as 3910 nM.

`CC(C)n1nc(N2CCN(C)C2=O)c2cnc(Nc3ccnc(-c4cnn(S(=O)(=O)C5CC5)c4)n3)cc21` returned an EC50 above 10000 nM. Turning to `CC(C)n1nc(N2CCC(C)(C(N)=O)C2)c2cnc(Nc3ccnc(N4CCC(C)(O)CC4)n3)cc21` (configuration not stated), the EC50 was 2860 nM.

As for `CC[C@H](C)n1nc(N2CC[C@H](O)C2)c2cnc(Nc3ccnc(N4CC[C@](C)(O)[C@H](F)C4)n3)cc21`, the EC50 was 371 nM. The figure for `CC(Nc1nn(C(C)C)c2cc(Nc3ccnc(-c4cnn(S(=O)(=O)C5CC5)c4)n3)ncc12)C(N)=O` (configuration not stated) is 4620 nM; for `CC(C)n1nc(N2CCOC(CO)C2)c2cnc(Nc3ccnc(-c4cnn(S(=O)(=O)C5CC5)c4)n3)cc21` (configuration not stated) it is 241 nM. The figure for `CC(C)n1nc(N2CC[S+]([O-])CC2)c2cnc(Nc3ccnc(-c4cnn(S(=O)(=O)C5CC5)c4)n3)cc21` is 835 nM; for `CCN1CCN(c2nn(C(C)C)c3cc(Nc4ccnc(-c5cnn(S(=O)(=O)C6CC6)c5)n4)ncc23)C1=O` it is 929 nM; for `CCC(C)n1nc(N2CCCC2=O)c2cnc(Nc3ccnc(N4CC[C@@H](O)[C@@H](F)C4)n3)cc21` (some centres not stated) it is 300 nM. The value for `CC(C)c1nn(C(C)C)c2cc(Nc3ccnc(-c4cnn(S(=O)(=O)C5CC5)c4)n3)ncc12` was 3700 nM; that for `CC(C)n1nc(N2CCC3(CCNC3=O)C2)c2cnc(Nc3ccnc(-c4cnn(S(=O)(=O)C5CC5)c4)n3)cc21` (configuration not stated) was 740 nM; that for `CCNC(=O)C1CN(c2nn(C(C)C)c3cc(Nc4ccnc(-c5cnn(S(=O)(=O)C6CC6)c5)n4)ncc23)C1` was 484 nM. In turn, `CC(C)n1nc(N2CCC3(CNC(=O)C3)C2)c2cnc(Nc3ccnc(-c4cnn(S(=O)(=O)C5CC5)c4)n3)cc21` (configuration not stated) showed an EC50 of 1790 nM. The figure for `COC1CCN(c2nccc(Nc3cc4c(cn3)c(N3CC5(COC5)C3)nn4C(C)C)n2)CC1` is 388 nM; for `CC[C@@H](C)n1nc(N2CC(C(C)(C)O)C2)c2cnc(Nc3ccnc(N4CC[C@@H](O)[C@@H](F)C4)n3)cc21` it is 334 nM; for `CC(C)n1ncc2cnc(Nc3ccnc(N4CCC(O)C(C)(C)C4)n3)cc21` (configuration not stated) it is 110 nM. `CC(C)n1nc(N2CC3(COC3)C2)c2cnc(Nc3ccnc(-c4cnn(S(=O)(=O)C5CC5)c4)n3)cc21` returned an EC50 of 421 nM.

Consider `CC(C)n1nc(N2C[C@H](O)[C@@H](F)C2)c2cnc(Nc3ccnc(-c4cnn(S(=O)(=O)C5CC5)c4)n3)cc21`, for which the EC50 came to 240 nM. The value for `CC(C)n1nc(NC2CCS(=O)(=O)C2)c2cnc(Nc3ccnc(-c4cnn(S(=O)(=O)C5CC5)c4)n3)cc21` (configuration not stated) was 1640 nM. The figure for `CC(C)n1nc(N2CC[C@@H](N)C2=O)c2cnc(Nc3ccnc(N4CCC(C)(O)CC4)n3)cc21` is 8120 nM; for `CC(C)n1nc(N2CC(C(=O)NC3CC(O)C3)C2)c2cnc(Nc3ccnc(-c4cnn(S(=O)(=O)C5CC5)c4)n3)cc21` (configuration not stated) it is above 10000 nM.

`CC(C)NC(=O)C1CN(c2nn(C(C)C)c3cc(Nc4ccnc(-c5cnn(S(=O)(=O)C6CC6)c5)n4)ncc23)C1`: the EC50 worked out at 825 nM. With `CCC(C)n1nc(N2CC(C(C)O)C2)c2cnc(Nc3ccnc(-c4cnn(S(=O)(=O)C5CC5)c4)n3)cc21` (configuration not stated), the EC50 was 537 nM. `CC(C)n1nc(N2CC[C@@H](CO)C2)c2cnc(Nc3ccnc(-c4cnn(S(=O)(=O)C5CC5)c4)n3)cc21` had an EC50 of 162 nM. The figure for `CC(n1nc(N2CCNC2=O)c2cnc(Nc3ccnc(N4CCC(C)(O)CC4)n3)cc21)C(F)(F)F` (configuration not stated) is 1070 nM; for `CC(C)n1nc(N2CC(C(=O)N3CC4CCC(C3)O4)C2)c2cnc(Nc3ccnc(-c4cnn(S(=O)(=O)C5CC5)c4)n3)cc21` it is 283 nM. The figure for `CC(C)n1nc(N2CC[C@H](N)C2=O)c2cnc(Nc3ccnc(N4CCC(C)(O)CC4)n3)cc21` is 9730 nM. The value for `CCC(C)n1nc(N2CC[C@H](O)C2=O)c2cnc(Nc3ccnc(-c4cnn(S(=O)(=O)C5CC5)c4)n3)cc21` (some centres not stated) was 696 nM; that for `CC(C)n1nc(N2CCN=C2O)c2cnc(Nc3ccnc(-c4cnn(S(=O)(=O)C5CC5)c4)n3)cc21` was 237 nM; that for `CC(C)n1nc(N2CCOCC2)c2cnc(Nc3ccnc(N4CCC(O)C(C)(C)C4)n3)cc21` (configuration not stated) was 1410 nM. The compound `CC(C)n1nc(N[C@@H]2CCOC2)c2cnc(Nc3ccnc(-c4cnn(S(=O)(=O)C5CC5)c4)n3)cc21` yielded an EC50 of 775 nM. With `CCC(C)n1nc(N2CC[C@@H](C(N)=O)C2)c2cnc(Nc3ccnc(N4CCC(C)(O)CC4)n3)cc21` (some centres not stated), the EC50 worked out at 7170 nM.

`CC(C)n1nc(N2CC(O)C(F)(F)C2)c2cnc(Nc3ccnc(N4CCC(C)(O)CC4)n3)cc21` (configuration not stated) displayed an EC50 of 1330 nM.

Turning to `CC(C)n1nc(C2CCOC2)c2cnc(Nc3ccnc(-c4cnn(S(=O)(=O)C5CC5)c4)n3)cc21` (configuration not stated), the EC50 was found to be 1460 nM.

With `CC(C)n1nc(N2CCS(=N)(=O)CC2)c2cnc(Nc3ccnc(-c4cnn(S(=O)(=O)C5CC5)c4)n3)cc21`, the EC50 was found to be 949 nM.

Consider `CC(C)n1nc(N2CC(C(C)(C)O)C2)c2cnc(Nc3ccnc(-c4cnn(S(=O)(=O)C5CC5)c4)n3)cc21`, for which the EC50 was 423 nM. The value for `CC(C)n1nc(N2CCC(O)C2)c2cnc(Nc3ccnc(-c4cnn(S(=O)(=O)C5CC5)c4)n3)cc21` (configuration not stated) was 201 nM. The value for `CC1CN(c2nn(C(C)C)c3cc(Nc4ccnc(-c5cnn(S(=O)(=O)C6CC6)c5)n4)ncc23)C(=O)N1` (configuration not stated) was 377 nM. Compound `CC(C)n1nc(N2CC(C(=O)N3CC[C@H](CO)C3)C2)c2cnc(Nc3ccnc(-c4cnn(S(=O)(=O)C5CC5)c4)n3)cc21` showed an EC50 of 1160 nM. The value for `CC(C)n1nc(N2CCOCC2)c2cnc(Nc3ccnc(-c4cnn(S(=O)(=O)C5CC5)c4)n3)cc21` was 266 nM. The figure for `CCS(=O)(=O)n1cc(-c2nccc(Nc3cc4c(cn3)c(N3CC(CO)C3)nn4C(C)C)n2)cn1` is 397 nM; for `CC(C)n1nc(NC(C)(C)C#N)c2cnc(Nc3ccnc(N4CC[C@H](O)[C@H](F)C4)n3)cc21` it is 8270 nM. The figure for `CC[C@H](C)n1nc(N2CC(C(C)(C)O)C2)c2cnc(Nc3ccnc(N4CC[C@@H](O)[C@@H](F)C4)n3)cc21` is 429 nM; for `CCS(=O)(=O)n1cc(-c2nccc(Nc3cc4c(cn3)c(NC3CCOC3)nn4C(C)C)n2)cn1` (configuration not stated) it is 272 nM. `CC(C)n1nc(N2CCC(C(=O)N(C)C)C2)c2cnc(Nc3ccnc(-c4cnn(S(=O)(=O)C5CC5)c4)n3)cc21` (configuration not stated) displayed an EC50 of 163 nM.

Regarding `CC(C)n1nc(NCCS(C)(=N)=O)c2cnc(Nc3ccnc(-c4cnn(S(=O)(=O)C5CC5)c4)n3)cc21` (configuration not stated), the EC50 is above 10000 nM. The value for `COC1CCN(c2nccc(Nc3cc4c(cn3)c(N3CCCC3)nn4C(C)C)n2)CC1` was 380 nM; that for `CC(C)n1nc(N(C)CC(O)CO)c2cnc(Nc3ccnc(-c4cnn(S(=O)(=O)C5CC5)c4)n3)cc21` (configuration not stated) was 945 nM; that for `CC(C)n1nc(N2CCOCC2)c2cnc(Nc3ccnc(NCC(C)(C)S(C)(=O)=O)n3)cc21` was 1260 nM. The value for `CC(C)n1nc(NCCO)c2cnc(Nc3ccnc(-c4cnn(S(=O)(=O)C5CC5)c4)n3)cc21` was 877 nM. Compound `CCC(C)n1nc(N2CC(C(C)(C)O)C2)c2cnc(Nc3ccnc(N4CCC(O)C(C)(C)C4)n3)cc21` (configuration not stated) returned a 50% effective concentration (EC50) of 288 nM.

With `CCC(C)n1nc(N2CCNC(=O)C2)c2cnc(Nc3ccnc(N4CCC(C)(O)CC4)n3)cc21` (configuration not stated), the EC50 turned out to be 1760 nM. The value for `CC(C)n1nc(NC2COC2)c2cnc(Nc3ccnc(-c4cnn(S(=O)(=O)C5CC5)c4)n3)cc21` was 167 nM. The compound `CC(C)n1nc(N2CC(C(C)(C)C(N)=O)C2)c2cnc(Nc3ccnc(N4CCC(C)(O)CC4)n3)cc21` returned an EC50 above 10000 nM. The figure for `CC(n1nc(N2CC3(COC3)C2)c2cnc(Nc3ccnc(-c4cnn(S(=O)(=O)C5CC5)c4)n3)cc21)C(F)(F)F` (configuration not stated) is 699 nM; for `CC(C)n1nc(NCCC2OCC(N)CO2)c2cnc(Nc3ccnc(N4CCC(C)(O)CC4)n3)cc21` (configuration not stated) it is above 10000 nM. Compound `CCC(C)n1nc(N2CCN(C(=O)[C@@H](C)O)CC2)c2cnc(Nc3ccnc(-c4cnn(S(=O)(=O)C5CC5)c4)n3)cc21` (some centres not stated) yielded an EC50 of 1090 nM.

In turn, `CC(C)n1nc(N2CC(C#N)CC2=O)c2cnc(Nc3ccnc(N4CCC(C)(O)CC4)n3)cc21` (configuration not stated) registered an EC50 of 1100 nM.

The compound `CC(C)n1nc(NC(C)(C)C)c2cnc(Nc3ccnc(-c4cnn(S(=O)(=O)C5CC5)c4)n3)cc21` had an EC50 of 4620 nM. The value for `CC(C)n1nc(N2CC(C(=O)N3CC[C@@H](O)C3)C2)c2cnc(Nc3ccnc(-c4cnn(S(=O)(=O)C5CC5)c4)n3)cc21` was 2520 nM.
